The source of these data is paper PMC11019635, “On-Resin Photochemical Decarboxylative Arylation of Peptides” (Organic Letters, 2023).

This test addresses PRMT5/MEP50 complex (Homo sapiens, UniProt O14744+Q9BQA1). Description: Competitive fluorescence polarization assay against a tracer peptide binding to the PRMT5/MEP50 complex. Conditions: competitive FP; for IC50: 200 nM PRMT5:MEP50 complex, 1 nM tracer peptide 50, 50 mM HEPES, 250 mM NaCl, 1 mM TCEP, 0.01% Tween 20, pH 8.0, 1 hour incubation, ex 485 nm / em 535 nm, four-parameter fit. The source says: Next, we used the method to perform a small SAR study on a peptide that we previously identified as an inhibitor of PRMT5 protein–protein interactions.[37] The peptide is derived from the PRMT5 binding protein RioK1 and contains a Phe that is important for high-affinity binding. We prepared a peptide with an Asp residue installed in its place, which was protected using the 2-phenylisopropyl group to avoid aspartimide formation during peptide extension that occurred while using the allyl group.[38] The batch was split, and each portion was reacted with a different Ar–Br to rapidly generate peptides with diverse Phe analogues (Figure 3C). The prepared peptides were then tested in a competitive fluorescence polarization assay against a tracer peptide binding to the PRMT5/MEP50 complex.[37] […]
h. Competitive Fluorescence Polarization assay
Evaluation of peptide 42-46 was performed similar to our previously described protocol.3 As tracer, we used peptide 50 from the same report. In brief, the peptides to be tested were serially diluted in buffer (50 mM HEPES, 250 mM NaCl, 1mM TCEP, and 0.01% (v/v) Tween 20, pH 8.0) in a black 384 wells plate in a total volume of 10 μl per well. Next, a mixture of PRMT5:MEP50 complex and tracer peptide 50 in the same buffer was added so that a final protein concentration of 200 nM and final tracer concentration of 1 nM was reached. The mixture was incubated for 1 hour and read on a Tecan Spark plate reader in fluorescence polarization mode set to an excitation wavelength of 485 nm and emission wavelength of 535 nm. Data was analyzed using Graphpad Prism version 9.2.0 and curves were fitted using nonlinear regression (log(inhibitor) vs. response – variable slope (four parameters)).
A general note: Fluorescence polarisation rises when a labelled molecule tumbles more slowly, as on binding a larger partner.

Starred links: 1 amine or outer side, 2 acyl side, 3 side chain; linkers in the order of their positions; H or OH if unused. Non-standard residues stand in square brackets, D forms with d. Residues, ends and D or L forms follow the SMILES beside them. X1 = O=C([C@H](Cc1ccc2c(c1)OC(F)(F)O2)N[*:1])[*:2]; Phe(4-CF3) = N[C@@H](Cc1ccc(C(F)(F)F)cc1)C(=O)O; X2 = N#CCc1ccc(C[C@H](N[*:1])C(=O)[*:2])cc1; Phe(4-CN) = N#Cc1ccc(C[C@H](N)C(=O)O)cc1

As usually defined, the IC50 is the midpoint of a concentration-inhibition curve. Low readings indicate inhibition by little substance, high ones a need for much substance.

Chain of PRMT5/MEP50 complex (O14744 whole entry, species assumed): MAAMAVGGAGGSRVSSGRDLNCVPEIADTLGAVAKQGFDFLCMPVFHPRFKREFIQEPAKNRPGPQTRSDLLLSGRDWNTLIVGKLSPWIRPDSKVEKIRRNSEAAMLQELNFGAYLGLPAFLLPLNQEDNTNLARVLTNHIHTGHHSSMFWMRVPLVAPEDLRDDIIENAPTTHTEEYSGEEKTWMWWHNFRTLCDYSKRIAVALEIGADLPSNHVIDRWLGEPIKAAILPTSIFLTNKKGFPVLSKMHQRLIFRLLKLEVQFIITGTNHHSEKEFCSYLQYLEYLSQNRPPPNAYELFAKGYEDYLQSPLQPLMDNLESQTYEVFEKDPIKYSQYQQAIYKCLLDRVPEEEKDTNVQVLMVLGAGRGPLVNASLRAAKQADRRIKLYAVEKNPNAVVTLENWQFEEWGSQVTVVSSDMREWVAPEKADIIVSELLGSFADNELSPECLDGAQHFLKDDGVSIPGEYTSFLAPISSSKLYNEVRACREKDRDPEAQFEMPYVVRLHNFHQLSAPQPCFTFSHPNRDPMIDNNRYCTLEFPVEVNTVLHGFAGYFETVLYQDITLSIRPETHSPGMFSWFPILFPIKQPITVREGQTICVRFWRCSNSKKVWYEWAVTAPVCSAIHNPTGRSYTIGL
Chain of PRMT5/MEP50 complex (Q9BQA1 whole entry partner, species assumed): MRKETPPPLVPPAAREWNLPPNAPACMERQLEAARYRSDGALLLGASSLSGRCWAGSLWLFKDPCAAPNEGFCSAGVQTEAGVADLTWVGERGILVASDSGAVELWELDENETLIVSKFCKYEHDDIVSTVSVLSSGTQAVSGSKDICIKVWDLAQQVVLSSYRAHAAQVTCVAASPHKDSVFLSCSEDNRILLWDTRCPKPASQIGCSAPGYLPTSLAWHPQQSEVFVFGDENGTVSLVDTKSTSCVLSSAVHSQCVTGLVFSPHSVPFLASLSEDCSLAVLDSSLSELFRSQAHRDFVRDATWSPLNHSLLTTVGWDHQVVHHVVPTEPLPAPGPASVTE

Consider `CC(=O)N[C@H](C(=O)N1CCC[C@H]1C(=O)NCC(=O)N[C@@H](CCC(N)=O)C(=O)N[C@@H](Cc1ccc(CC#N)cc1)C(=O)N[C@@H](CC(=O)O)C(=O)N[C@@H](CC(=O)O)C(=O)N[C@@H](C)C(=O)N[C@@H](CC(=O)O)C(N)=O)C(C)C` [compound 43] (Ac-VPGQ[X2]DDAD-NH2), for which the IC50 came out at 14.6 ± 6.37 µM.
Same read-out and setting: then “Ac-VPGQFDDAD-NH2 [compound 46, reference compound]”, with 1.71 ± 0.59 µM.
As for `CC(=O)N[C@H](C(=O)N1CCC[C@H]1C(=O)NCC(=O)N[C@@H](CCC(N)=O)C(=O)N[C@@H](Cc1ccc(C#N)cc1)C(=O)N[C@@H](CC(=O)O)C(=O)N[C@@H](CC(=O)O)C(=O)N[C@@H](C)C(=O)N[C@@H](CC(=O)O)C(N)=O)C(C)C` [compound 42] (Ac-VPGQ[Phe(4-CN)]DDAD-NH2), the IC50 turned out to be 0.56 ± 0.15 µM. For the same compound, the “fold improvement in IC50 in comparison to the wild-type peptide 46” value (PRMT5/MEP50 complex, relative to peptide 46) came to 3 fold.
Regarding `CC(=O)N[C@H](C(=O)N1CCC[C@H]1C(=O)NCC(=O)N[C@@H](CCC(N)=O)C(=O)N[C@@H](Cc1ccc2c(c1)OC(F)(F)O2)C(=O)N[C@@H](CC(=O)O)C(=O)N[C@@H](CC(=O)O)C(=O)N[C@@H](C)C(=O)N[C@@H](CC(=O)O)C(N)=O)C(C)C` [compound 45] (Ac-VPGQ[X1]DDAD-NH2), the IC50 came to 17.1 ± 8.05 µM.
As to `CC(=O)N[C@H](C(=O)N1CCC[C@H]1C(=O)NCC(=O)N[C@@H](CCC(N)=O)C(=O)N[C@@H](Cc1ccc(C(F)(F)F)cc1)C(=O)N[C@@H](CC(=O)O)C(=O)N[C@@H](CC(=O)O)C(=O)N[C@@H](C)C(=O)N[C@@H](CC(=O)O)C(N)=O)C(C)C` [compound 44] (Ac-VPGQ[Phe(4-CF3)]DDAD-NH2), the IC50 is 6.74 ± 3.23 µM.
